Results taken from patent publication US20230201426A1, “GEL COMPOSITION AND PRODUCTION METHOD THEREFOR, AND THREE-DIMENSIONAL TISSUE BODY AND PRODUCTION METHOD THEREFOR” (TOPPAN INC., priority 2020, published 2023).

Tested on: human mammary gland cancer cells (MDA-MB-231)
Assay: Viability of cells cultured after mixing the cell suspension with the Pt^2+ solution alone
Assay type: cell-based
Conditions: final concentration of Pt^2+ 0.05 mM to 0.5 mM

Structure (SMILES): [Cl][Pt-2]([Cl])([Cl])[Cl].[K+].[K+] [Pt^2+ solution, Potassium tetrachloroplatinate(II) (K2PtCl4)]
- cytotoxicity: significant cytotoxicity was not recognized
